These substances were tested on Human dermal papilla cells (HDPCs) (assay: Activation of hair dermal papilla cell proliferation (CCK8 assay, absorbance at 450 nm)). Conditions: serum-free DMEM, peptide at 0.1 μM, 1 μM and 10 μM, 72 hours.
Assay type: cell-based
Method: Human dermal papilla cells (HDPCs) were attached to a 96-well plate at 2,000 cells per well, and then cultured using DMEM medium (Sigma Aldrich) containing 10% FBS and 1% penicillin/streptomycin (P/S; Sigma Aldrich) for 24 hours, the medium was then exchanged with serum-free DMEM, and diluted samples were treated with a GPK, GPS, GPA, GQK, or PO peptide at a concentration of each of 0.1 μM, 1 μM, and 10 μM, for 72 hours, and then treated with a CCK8 reagent for 1 hour to measure the absorbance at 450 nm using a microplate reader (TECAN), and the results are shown in FIGS. 1 to 5 (FIG. 1: GPK, FIG. 2: GPS, FIG. 3: GPA, FIG. 4: GQK, and FIG. 5: PO). As a positive control (PC), a 5% fetal bovine serum (FBS) treated group was used.
With Gly-Pro-Lys [GPK] the “cell proliferation compared to the untreated control” value was “significantly increased”.
Gly-Pro-Ala [GPA] was tested, and the “cell proliferation compared to the untreated control” value was “significantly increased”.
With Gly-Gln-Lys [GQK] the “cell proliferation compared to the untreated control” value was “significantly increased”.
With Gly-Pro-Ser [GPS] the “cell proliferation compared to the untreated control” value was “significantly increased”.
In the case of Pro-Hyp [PO], the “cell proliferation compared to the untreated control” value is reported as “significantly increased”.

— patent US20250339489A1, “COMPOSITION FOR SUPPRESSING HAIR LOSS OR PROMOTING HAIR GROWTH CONTAINING PEPTIDE” (AMOREPACIFIC CORPORATION, priority 2024, published 2025)
